This is an account of results in US6521615B2, “Diagnosing an animal for pyrophosphate gout, osteoporosis, or osteoarthritis by assaying intracellular pyrophosphate content in peripheral blood cells” (The Regents of the University of California, priority 1998, dated 2003).

The assay concerns human peripheral blood lymphocytes (mononuclear cells). On the procedure:
Mononuclear Cell Isolation: For this purpose 5 ml of freshly drawn heparinized blood was layered on 3.0 ml of Histopaque in a 15 ml polypropylene centrifuge tube and centrifuged at room temperature for 20 minutes at 1,000 g. The mononuclear cell layer was then removed from the tube and transferred into a new 15-ml tube. Volume was brought to a total of 5 ml by addition of Hanks buffered salt solution lacking Mg and Ca (HBSS). This suspension of cells was again layered onto 3.0 ml of Histopaque and again centrifuged as before.
Resuspension of the centrifuged cells in 12-ml HBSS was repeated three times, each followed by 10 min centrifugation at a lower g of 250 g, 50 g, and 50 g to remove contaminating platelets which carry substantial PPi.
After decanting the supernatant, the cell pellet was resuspended in 1.0 ml of HBSS for counting in a hemocytometer. After counting, the cell suspension was spun for 10 minutes in a microfuge at 14,000 rpm. After decanting and thoroughly removing the supernatant, 3.0 μl of 0.1 M sodium […] (an alkaline phosphatase inhibitor) were added and the cells were lysed by addition of 100 μl of 1% triton X-100 and vortexing. The lysate is then stored frozen at −20° C. until time of assay.
PPi Assay: The assay of PPi in mononuclear cells in Tables 1 and 2 were done by the luminescent methods (Barshop, B A et al. Analyt Biochem (1991) 197:266-272). […] Each sample was assayed in duplicate and in the presence and absence of added pyrophosphate as a recovery test.
Volunteer two was an adult volunteer who had just been scheduled by the same internist to start the same medication for their hypertension.

“Also recorded” adds a separate entry of the source. Read-outs that look alike come from different tables or passages of the source.

Take `COc1ccc([C@@H]2Sc3ccccc3N(CCN(C)C)C(=O)[C@@H]2OC(C)=O)cc1` [diltiazem]: the “effect on intracellular concentration of pyrophosphate (PPi)” value (mononuclear cells of peripheral blood, result in words) is listed as “lowers the intracellular concentration of pyrophosphate (PPi); also recorded: comparable lowering of mononuclear cells in one of two patients”. Further, the PPi was determined as 241 pmole/10^6 cells (subject one (chondrocalcinosis), diltiazem 60 mg/day taken for only one day, collection 03/13/91); 128 pmole/10^6 cells (subject one (chondrocalcinosis), diltiazem 60 mg/day, collection 05/16/91); 343 pmole/10^6 cells (subject three (chondrocalcinosis), diltiazem 60 mg/day, collection 09/11/91).
